From patent US20110053897A1 (IRM LLC, priority 2009, published 2011) come the findings set out here.

This test addresses T1, Syk kinase (Homo sapiens, UniProt P43405).
T1 construct: purchased
As to the kind of experiment: Syk kinase inhibition, Caliper LabChip off-chip mobility-shift kinase assay. It counts as biochemical. Conditions: read-out: Syk Enzyme IC50. An outline of the steps: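 Purified Syk pre-incubated 15 min with compound in 100 mM HEPES pH 7.5, 1 mM DTT, 10 mM MgCl2 or MnCl2, 0.002% Brij-35, then 1.5 μM fluorescein peptide and ATP at apparent KM added; 1–1.5 h at room temperature, 4% DMSO, EDTA stop. Microfluidic mobility-shift product/substrate conversion gave % inhibition; IC50 from 12-point series (10–0.00003 μM) by 4-parameter fit.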
The term IC50 denotes the concentration at which inhibition is half-maximal. For `Cc1cc(Nc2nc(C(C)C)cc3cc[nH]c(=O)c23)ccc1N1CCO[C@H](C)C1` [compound 226], the half-maximal inhibitory concentration (IC50) worked out at 1.74 µM.
On to `CCOCCc1cc2cc[nH]c(=O)c2c(Nc2ccc(C3CCN(C4CC4)CC3)c(C)c2)n1` [compound 227], for which the half-inhibitory concentration (IC50) is 0.398 µM.
In the case of `C/C=C/c1cc2cc[nH]c(=O)c2c(Nc2ccc(C3CCN(C4CC4)CC3)c(C)c2)n1` [compound 228] it was 1.66 µM; in that of `C=C(C)c1cc2cc[nH]c(=O)c2c(Nc2ccc(C3CCN(C4CC4)CC3)c(C)c2)n1` [compound 229], 0.743 µM.
In the case of `CCCc1cc2cc[nH]c(=O)c2c(Nc2ccc(C3CCN(C4CC4)CC3)c(C)c2)n1` [compound 230] it was 0.556 µM.
In the case of `Cc1cc(Nc2nc(C(C)C)cc3cc[nH]c(=O)c23)ccc1C1CCN(C2CC2)CC1` [compound 231] it was 0.864 µM.
On to `CC(=O)c1cc2cc[nH]c(=O)c2c(Nc2ccc(C3CCNCC3)c(C)c2)n1` [compound 232], for which the IC50 was found to be 0.242 µM.
On to `CCOC(C)c1cc2cc[nH]c(=O)c2c(Nc2ccc(N3CCO[C@H](C)C3)c(C)c2)n1` (stereo partly shown) [compound 233], for which the half-inhibitory concentration (IC50) was 0.754 µM.
In the case of `CO/N=C(\C)c1cc2cc[nH]c(=O)c2c(Nc2ccc(N3CCO[C@H](C)C3)c(C)c2)n1` [compound 234] it was 1.31 µM; in that of `CO/N=C(\C)c1cc2cc[nH]c(=O)c2c(Nc2ccc(C3CCNCC3)c(C)c2)n1` [compound 235], 0.102 µM.
In the case of `Cc1cc(Nc2nc(C(C)O)cc3cc[nH]c(=O)c23)ccc1C1CCNCC1` (stereo not shown) [compound 236] it was 0.012 µM; in that of `CO/N=C(\C)c1cc2cc[nH]c(=O)c2c(Nc2ccc(C3CCN(C4CC4)CC3)c(C)c2)n1` [compound 237], 0.407 µM.
Regarding `COCCCc1cc2cc[nH]c(=O)c2c(Nc2ccc(C3CCN(C4CC4)CC3)c(C)c2)n1` [compound 238], the IC50 stood at 1.29 µM.
For the compound `COCCCc1cc2cc[nH]c(=O)c2c(Nc2ccc(N3CCO[C@H](C)C3)c(C)c2)n1` [compound 239], the IC50 worked out at 2.22 µM.
With `COCCCc1cc2cc[nH]c(=O)c2c(Nc2ccc(N3CCOCC3)cc2)n1` [compound 240], the half-maximal inhibitory concentration (IC50) was determined as 0.356 µM.
In the case of `C[C@@H]1CN(c2ccc(Nc3nc(/C=C/C(=O)O)cc4cc[nH]c(=O)c34)cn2)CCO1` [compound 241] it was 0.208 µM.
In the case of `CCOC(=O)/C=C/c1cc2cc[nH]c(=O)c2c(Nc2ccc(N3CCOCC3)cc2)n1` [compound 242] it was 0.332 µM.
Take `C[C@@H]1CN(c2ccc(Nc3nc(CCC(=O)O)cc4cc[nH]c(=O)c34)cn2)CCO1` [compound 243]: the IC50 is 0.307 µM.
In the case of `O=c1[nH]ccc2cc(CCO)nc(Nc3ccc(N4CCOCC4)cc3)c12` [compound 244], the half-maximal inhibitory concentration (IC50) was determined as 0.031 µM.
In the case of `CCOC(=O)CCc1cc2cc[nH]c(=O)c2c(Nc2ccc(N3CCOCC3)cc2)n1` [compound 245] it was 0.295 µM.
`Cc1cc(Nc2nc(CCO)cc3cc[nH]c(=O)c23)ccc1C1CCN(C2CC2)CC1` [compound 246]: the concentration for half-maximal inhibition (IC50) was 0.041 µM.
In the case of `O=c1[nH]ccc2cc(CCCO)nc(Nc3ccc(N4CCOCC4)cc3)c12` [compound 247] it was 0.045 µM; in that of `Cc1cnc(Nc2cc3cc[nH]c(=O)c3c(Nc3ccc(C4CCN(C5CC5)CC4)c(C)c3)n2)cn1` [compound 248], 2.02 µM; in that of `Cc1ccc(Nc2cc3cc[nH]c(=O)c3c(Nc3ccc(C4CCN(C5CC5)CC4)c(C)c3)n2)nc1` [compound 249], 1.59 µM.
In the case of `Cc1cc(Nc2nc(Nc3ccc(Cl)cn3)cc3cc[nH]c(=O)c23)ccc1C1CCN(C2CC2)CC1` [compound 250] it was 2.08 µM; in that of `Cc1cc(Nc2nc(Nc3ccc(C(N)=O)cn3)cc3cc[nH]c(=O)c23)ccc1C1CCN(C2CC2)CC1` [compound 251], 0.058 µM; in that of `Cc1ccnc(Nc2cc3cc[nH]c(=O)c3c(Nc3ccc(C4CCN(C5CC5)CC4)c(C)c3)n2)c1` [compound 252], 0.032 µM.
Consider `CCc1ccnc(Nc2cc3cc[nH]c(=O)c3c(Nc3ccc(C4CCN(C5CC5)CC4)c(C)c3)n2)c1` [compound 253], for which the IC50 came out at 0.033 µM.
In the case of `Cc1cc(Nc2nc(Nc3cc(C(F)(F)F)ccn3)cc3cc[nH]c(=O)c23)ccc1C1CCN(C2CC2)CC1` [compound 255] it was 0.434 µM.
In the case of `Cc1cc(C)nc(Nc2cc3cc[nH]c(=O)c3c(Nc3ccc(C4CCN(C5CC5)CC4)c(C)c3)n2)c1` [compound 256] it was 0.141 µM; in that of `Cc1cc(Nc2nc(Nc3cc(Cl)ccn3)cc3cc[nH]c(=O)c23)ccc1C1CCN(C2CC2)CC1` [compound 257], 0.17 µM.
As to `Cc1cc(Nc2nc(Nc3ccc(S(N)(=O)=O)cn3)cc3cc[nH]c(=O)c23)ccc1C1CCN(C2CC2)CC1` [compound 258], the IC50 came out at 0.061 µM.
`COc1ccnc(Nc2cc3cc[nH]c(=O)c3c(Nc3ccc(C4CCN(C5CC5)CC4)c(C)c3)n2)c1` [compound 259]: the concentration for half-maximal inhibition (IC50) was 0.255 µM.
In the case of `Cc1cc(Nc2nc(Nc3cc(CO)ccn3)cc3cc[nH]c(=O)c23)ccc1C1CCN(C2CC2)CC1` [compound 260] it was 0.049 µM; in that of `Cc1cc(Nc2nc(Nc3cc(C(=O)O)ccn3)cc3cc[nH]c(=O)c23)ccc1C1CCN(C2CC2)CC1` [compound 261], 0.249 µM; in that of `CCC(C)Nc1nc(Nc2cc(C)ccn2)cc2cc[nH]c(=O)c12` (stereo not shown) [compound 262], 0.201 µM.
As to `CCC(C)Nc1nc(Nc2ccccn2)cc2cc[nH]c(=O)c12` (stereo not shown) [compound 263], the half-inhibitory concentration (IC50) worked out at 0.756 µM.
As for `CCC(C)Nc1nc(Nc2ccc(F)cn2)cc2cc[nH]c(=O)c12` (stereo not shown) [compound 264], the IC50 was 0.423 µM.
With `Cc1ccnc(Nc2cc3cc[nH]c(=O)c3c(NC(C)CO)n2)c1` (stereo not shown) [compound 265], the half-maximal inhibitory concentration (IC50) worked out at 0.018 µM.
Take `COCC(C)Nc1nc(Nc2cc(C)ccn2)cc2cc[nH]c(=O)c12` (stereo not shown) [compound 266]: the IC50 was determined as 0.074 µM.
Take `Cc1ccnc(Nc2cc3cc[nH]c(=O)c3c(NC(C)C(C)C)n2)c1` (stereo not shown) [compound 268]: the concentration for half-maximal inhibition (IC50) came to 0.343 µM.
Consider `Cc1ccnc(Nc2cc3cc[nH]c(=O)c3c(N3CCCC3)n2)c1` [compound 269], for which the IC50 is 0.554 µM.
For the compound `Cc1ccnc(Nc2cc3cc[nH]c(=O)c3c(NC(C)CC(C)C)n2)c1` (stereo not shown) [compound 270], the half-inhibitory concentration (IC50) came to 6.95 µM.
In the case of `Cc1ccnc(Nc2cc3cc[nH]c(=O)c3c(N3CCOCC3)n2)c1` [compound 272] it was 0.278 µM.
In the case of `Cc1ccnc(Nc2cc3cc[nH]c(=O)c3c(NC3CCOC3)n2)c1` (stereo not shown) [compound 273] it was 0.042 µM; in that of `CC(CO)Nc1nc(Nc2ccccn2)cc2cc[nH]c(=O)c12` (stereo not shown) [compound 274], 0.055 µM; in that of `CC(C)CC(C)Nc1nc(Nc2ccccn2)cc2cc[nH]c(=O)c12` (stereo not shown) [compound 275], 3.2 µM.
Turning to `COCC(C)Nc1nc(Nc2ccccn2)cc2cc[nH]c(=O)c12` (stereo not shown) [compound 276], the IC50 was 0.167 µM.
In the case of `CC(C)C(C)Nc1nc(Nc2ccccn2)cc2cc[nH]c(=O)c12` (stereo not shown) [compound 278] it was 2.21 µM.
In the case of `O=c1[nH]ccc2cc(Nc3ccccn3)nc(N3CCCC3)c12` [compound 279] it was 1.42 µM; in that of `COCCCNc1nc(Nc2cc(C)ccn2)cc2cc[nH]c(=O)c12` [compound 281], 0.087 µM; in that of `Cc1ccnc(Nc2cc3cc[nH]c(=O)c3c(NCC(C)C)n2)c1` [compound 282], 0.5 µM.
`CC[C@H](C)Nc1nc(Nc2cc(C)ccn2)cc2cc[nH]c(=O)c12` [compound 283]: the half-maximal inhibitory concentration (IC50) was 0.443 µM.
In the case of `Cc1ccnc(Nc2cc3cc[nH]c(=O)c3c(NCCc3cccnc3)n2)c1` [compound 284], the IC50 was 0.166 µM.
For the compound `Cc1ccnc(Nc2cc3cc[nH]c(=O)c3c(NCC3CC3)n2)c1` [compound 285], the IC50 was found to be 0.201 µM.
In the case of `O=c1[nH]ccc2cc(Nc3ccccn3)nc(N3CCOCC3)c12` [compound 286] it was 0.951 µM; in that of `O=c1[nH]ccc2cc(Nc3ccccn3)nc(NC3CCOC3)c12` (stereo not shown) [compound 287], 0.148 µM.
In the case of `CC(C)CNc1nc(Nc2ccccn2)cc2cc[nH]c(=O)c12` [compound 288] it was 0.694 µM; in that of `O=c1[nH]ccc2cc(Nc3ccccn3)nc(NCCc3cccnc3)c12` [compound 289], 0.228 µM; in that of `CC[C@H](C)Nc1nc(Nc2ccccn2)cc2cc[nH]c(=O)c12` [compound 290], 0.271 µM.
In the case of `O=c1[nH]ccc2cc(Nc3ccccn3)nc(NCC3CC3)c12` [compound 291] it was 0.312 µM; in that of `Cc1ccnc(Nc2cc3cc[nH]c(=O)c3c(NC3CCCC3)n2)c1` [compound 292], 0.176 µM.
As to `Cc1ccnc(Nc2cc3cc[nH]c(=O)c3c(NC3CCOCC3)n2)c1` [compound 293], the half-inhibitory concentration (IC50) stood at 0.145 µM.
In the case of `Cc1ccnc(Nc2cc3cc[nH]c(=O)c3c(N[C@@H](C)CO)n2)c1` [compound 294] it was 0.101 µM; in that of `Cc1ccnc(Nc2cc3cc[nH]c(=O)c3c(N[C@H](C)CO)n2)c1` [compound 295], 0.02 µM.
In the case of `O=c1[nH]ccc2cc(Nc3ccccn3)nc(NC3CCCC3)c12` [compound 296] it was 0.153 µM.
Take `O=c1[nH]ccc2cc(Nc3ccccn3)nc(NC3CCOCC3)c12` [compound 297]: the IC50 was 0.335 µM.
Take `C[C@@H](CO)Nc1nc(Nc2ccccn2)cc2cc[nH]c(=O)c12` [compound 298]: the IC50 was 0.155 µM.
With `C[C@H](CO)Nc1nc(Nc2ccccn2)cc2cc[nH]c(=O)c12` [compound 299], the IC50 amounted to 0.068 µM.
With `Cc1ccnc(Nc2cc3cc[nH]c(=O)c3c(NC3CNC3)n2)c1` [compound 300], the concentration for half-maximal inhibition (IC50) worked out at 1.54 µM.
As to `Cc1ccnc(Nc2cc3cc[nH]c(=O)c3c(N[C@@H]3CCOC3)n2)c1` [compound 301], the half-inhibitory concentration (IC50) stood at 0.037 µM.
In the case of `Cc1ccnc(Nc2cc3cc[nH]c(=O)c3c(N[C@H]3CCOC3)n2)c1` [compound 302] it was 0.083 µM; in that of `Cc1ccnc(Nc2cc3cc[nH]c(=O)c3c(N[C@H]3CC[C@@H](O)CC3)n2)c1` [compound 303], 0.017 µM.
